Assay results reported in patent US9708318B2, “Bicyclic heterocycles as FGFR4 inhibitors” (Incyte Corporation, priority 2015, dated 2017).
Where two headings read alike, the source gives them in different places.

Columns and labels:
FGFR4 = FGFR4 (Homo sapiens (Human), UniProt P22455); experiment: FGFR Enzymatic Assay (FRET peptide phosphorylation), FGFR4; assay type: biochemical
Method: (§1) The inhibitor potency of the exemplified compounds was measured in an enzyme assay that measures peptide phosphorylation using FRET measurements to detect product formation. Inhibitors were serially diluted in DMSO and a volume of 0.5 μL was transferred to the wells of a 384-well plate.
(§2) The enzymes were purchased from Millipore or Invitrogen.
(§3) GraphPad prism3 was used to analyze the data.

FGFR3 enzyme = FGFR3 enzyme (Homo sapiens (Human), UniProt P22607); experiment: FGFR Enzymatic Assay (FRET peptide phosphorylation), FGFR3; assay type: biochemical; conditions: for FGFR1/FGFR3 IC50 ratio / FGFR4/FGFR3 IC50 ratio: FGFR3 selectivity
Method: as §1, §3

FGFR1 = FGFR1 (Homo sapiens (Human), UniProt P11362); experiment: FGFR Enzymatic Assay (FRET peptide phosphorylation), FGFR1
FGFR2 = FGFR2 (Homo sapiens (Human), UniProt P21802); experiment: FGFR Enzymatic Assay (FRET peptide phosphorylation), FGFR2; assay type: biochemical
Method: as §1, §2, §3

[1] = pre-incubated for 4 hours, read-out: FGFR3 IC50
[2] = read-out: FGFR1 IC50, pre-incubated for 4 hours
[3] = pre-incubated for 5 to 10 minutes
[4] = FGFR1 IC50 (nM), pre-incubated for 4 hours

Sequence of FGFR3 enzyme (P22607 23-806): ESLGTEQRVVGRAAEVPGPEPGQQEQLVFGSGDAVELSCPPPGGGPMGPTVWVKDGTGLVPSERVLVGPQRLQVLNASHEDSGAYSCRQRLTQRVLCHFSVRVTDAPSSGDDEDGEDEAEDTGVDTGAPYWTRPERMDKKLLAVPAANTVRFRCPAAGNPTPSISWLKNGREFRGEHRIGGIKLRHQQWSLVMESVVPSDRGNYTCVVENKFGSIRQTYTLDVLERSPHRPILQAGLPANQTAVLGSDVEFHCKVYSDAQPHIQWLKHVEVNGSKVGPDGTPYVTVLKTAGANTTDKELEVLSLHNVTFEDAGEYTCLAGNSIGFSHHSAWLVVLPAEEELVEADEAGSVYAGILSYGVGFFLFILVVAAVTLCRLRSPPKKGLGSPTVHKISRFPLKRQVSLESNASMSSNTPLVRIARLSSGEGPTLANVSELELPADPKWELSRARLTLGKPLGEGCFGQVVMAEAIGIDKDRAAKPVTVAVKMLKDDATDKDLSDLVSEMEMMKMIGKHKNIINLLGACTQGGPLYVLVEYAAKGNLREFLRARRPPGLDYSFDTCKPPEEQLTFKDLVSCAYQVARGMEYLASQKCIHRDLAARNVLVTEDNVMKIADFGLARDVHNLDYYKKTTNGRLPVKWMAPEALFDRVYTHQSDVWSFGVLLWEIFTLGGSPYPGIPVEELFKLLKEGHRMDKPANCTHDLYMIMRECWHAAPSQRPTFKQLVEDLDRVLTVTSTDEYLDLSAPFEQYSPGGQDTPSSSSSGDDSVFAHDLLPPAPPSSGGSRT
Sequence of FGFR2 (P21802 22-821): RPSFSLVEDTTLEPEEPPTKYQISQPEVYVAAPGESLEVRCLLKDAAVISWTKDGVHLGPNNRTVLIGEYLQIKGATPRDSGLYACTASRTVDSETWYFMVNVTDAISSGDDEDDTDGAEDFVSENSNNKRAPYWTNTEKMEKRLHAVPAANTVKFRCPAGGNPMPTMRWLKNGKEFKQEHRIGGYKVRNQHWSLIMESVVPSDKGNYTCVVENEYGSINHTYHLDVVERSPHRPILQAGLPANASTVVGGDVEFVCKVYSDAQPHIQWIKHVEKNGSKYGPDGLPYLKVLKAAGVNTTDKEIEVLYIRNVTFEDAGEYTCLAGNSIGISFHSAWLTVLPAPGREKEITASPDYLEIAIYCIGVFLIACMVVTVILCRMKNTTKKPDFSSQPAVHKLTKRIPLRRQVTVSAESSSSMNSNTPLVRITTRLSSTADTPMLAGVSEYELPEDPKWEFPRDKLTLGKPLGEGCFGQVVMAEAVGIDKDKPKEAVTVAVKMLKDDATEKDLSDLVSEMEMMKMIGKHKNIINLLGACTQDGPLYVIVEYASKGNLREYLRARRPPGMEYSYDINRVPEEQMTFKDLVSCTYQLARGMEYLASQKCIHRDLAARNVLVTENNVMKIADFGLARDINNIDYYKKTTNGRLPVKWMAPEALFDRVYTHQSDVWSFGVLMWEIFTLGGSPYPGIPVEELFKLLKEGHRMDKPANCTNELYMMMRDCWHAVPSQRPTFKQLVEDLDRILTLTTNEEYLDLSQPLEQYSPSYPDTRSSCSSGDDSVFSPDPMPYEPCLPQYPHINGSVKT
Sequence of FGFR1 (P11362 22-822): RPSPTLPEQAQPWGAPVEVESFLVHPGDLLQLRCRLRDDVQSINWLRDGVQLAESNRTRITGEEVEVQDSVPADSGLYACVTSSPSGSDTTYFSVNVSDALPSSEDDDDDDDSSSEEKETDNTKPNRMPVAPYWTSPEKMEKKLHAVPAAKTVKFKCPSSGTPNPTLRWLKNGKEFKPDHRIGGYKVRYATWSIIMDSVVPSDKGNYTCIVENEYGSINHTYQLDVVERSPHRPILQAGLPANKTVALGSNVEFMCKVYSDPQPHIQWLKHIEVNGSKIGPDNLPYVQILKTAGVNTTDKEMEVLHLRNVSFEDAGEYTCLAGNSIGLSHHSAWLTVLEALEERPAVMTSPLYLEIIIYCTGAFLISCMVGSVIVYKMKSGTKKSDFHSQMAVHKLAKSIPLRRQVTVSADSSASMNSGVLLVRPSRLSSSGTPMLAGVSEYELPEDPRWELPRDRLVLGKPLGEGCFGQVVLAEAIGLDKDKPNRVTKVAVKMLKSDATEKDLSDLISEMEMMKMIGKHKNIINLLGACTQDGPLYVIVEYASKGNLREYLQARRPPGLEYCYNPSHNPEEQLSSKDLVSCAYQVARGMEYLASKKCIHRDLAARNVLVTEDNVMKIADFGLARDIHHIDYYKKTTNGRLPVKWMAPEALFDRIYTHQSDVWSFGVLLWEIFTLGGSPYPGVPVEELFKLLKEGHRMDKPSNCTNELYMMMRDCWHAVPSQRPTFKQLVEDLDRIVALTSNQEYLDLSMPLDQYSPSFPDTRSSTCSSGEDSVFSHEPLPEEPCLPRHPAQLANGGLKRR
Sequence of FGFR4 (P22455 22-802): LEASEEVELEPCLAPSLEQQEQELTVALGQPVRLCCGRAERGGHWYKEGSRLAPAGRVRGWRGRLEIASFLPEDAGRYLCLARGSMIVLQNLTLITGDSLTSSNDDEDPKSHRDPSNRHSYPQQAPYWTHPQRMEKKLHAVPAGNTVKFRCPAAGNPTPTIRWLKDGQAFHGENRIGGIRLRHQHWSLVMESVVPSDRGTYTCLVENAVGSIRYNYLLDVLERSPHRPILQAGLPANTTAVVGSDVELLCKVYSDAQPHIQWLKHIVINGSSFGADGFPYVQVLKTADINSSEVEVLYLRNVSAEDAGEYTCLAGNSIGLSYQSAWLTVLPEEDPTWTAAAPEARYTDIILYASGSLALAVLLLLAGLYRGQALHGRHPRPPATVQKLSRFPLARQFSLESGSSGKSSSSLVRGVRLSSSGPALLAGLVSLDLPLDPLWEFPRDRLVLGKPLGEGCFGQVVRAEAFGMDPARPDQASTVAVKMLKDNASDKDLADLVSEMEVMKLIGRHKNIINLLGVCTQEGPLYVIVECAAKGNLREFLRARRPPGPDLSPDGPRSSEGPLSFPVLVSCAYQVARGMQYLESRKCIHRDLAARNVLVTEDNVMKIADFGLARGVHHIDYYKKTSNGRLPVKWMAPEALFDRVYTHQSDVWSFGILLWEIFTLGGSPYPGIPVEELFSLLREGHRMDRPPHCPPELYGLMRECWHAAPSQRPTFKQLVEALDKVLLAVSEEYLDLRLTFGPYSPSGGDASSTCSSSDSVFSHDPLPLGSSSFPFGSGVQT

Row | Compound | IC50 (FGFR4; pre-incubated for 4 hours) [nM] | FGFR1/FGFR3 IC50 ratio (FGFR3 enzyme; pre-incubated for 4 hours) | FGFR4/FGFR3 IC50 ratio (FGFR3 enzyme; pre-incubated for 4 hours) | IC50 (FGFR3 enzyme; [1]) [nM] | IC50 (FGFR1; [2]) [nM] | IC50 (FGFR2; pre-incubated for 4 hours) [nM] | IC50 (FGFR4; [3]) [nM] | IC50 (FGFR3 enzyme; pre-incubated for 5 to 10 minutes, read-out: FGFR3 IC50) [nM] | IC50 (FGFR1; FGFR1 IC50 (nM), pre-incubated for 5 to 10 minutes) [nM] | IC50 (FGFR2; [3]) [nM] | IC50 (FGFR1; [4]) [nM] | IC50 (FGFR3 enzyme) [nM] | IC50 (FGFR1) [nM]
1 | COc1cc(OC)c(F)c(N2Cc3cnc(-c4cnn(C5(CC#N)CN(C(C)=O)C5)c4)cc3C3(CC3)C2=O)c1F [Example 56, 2-(1-acetyl-3-(4-(2′-(2,6-difluoro-3,5-dimethoxyphenyl)-3′-oxo-2′,3′-dihydro-1′H-spiro[cyclopropane-1,4′-[2,7]naphthyridine]-6′-yl)-1H-pyrazol-1-yl)azetidin-3-yl)acetonitrile] | 30 to 200 | >5 | >1 | 30 to 200 | > 200 | 30 to 200 |  |  |  |  |  |  | 
2 | COc1cc(OC)c(F)c(N2Cc3cnc(-c4cn(C)nc4C)cc3N(c3ccnnc3)C2=O)c1F [Example 57, 3-(2,6-difluoro-3,5-dimethoxyphenyl)-7-(1,3-dimethyl-1H-pyrazol-4-yl)-1-(pyridazin-4-yl)-3,4-dihydropyrido[4,3-d]pyrimidin-2(1H)-one] | 30 to 200 | >10 | >10 | 10 to 30 | > 200 | 30 to 200 | > 200 | 10 to 30 | 30 to 200 | 30 to 200 |  |  | 
3 | COc1cc(OC)c(F)c(N2Cc3cnc(-c4cn(C)nc4C)cc3N(c3cncnc3)C2=O)c1F [Example 61, 3-(2,6-difluoro-3,5-dimethoxyphenyl)-7-(1,3-dimethyl-1H-pyrazol-4-yl)-1-(pyrimidin-5-yl)-3,4-dihydropyrido[4,3-d]pyrimidin-2(1H)-one] | > 200 | >10 | >5 | 10 to 30 | > 200 | 30 to 200 |  |  |  |  |  |  | 
4 | CNC(=O)c1ccc(CN2C(=O)N(c3c(F)c(OC)cc(OC)c3F)Cc3cnc(-c4cn(C)nc4C)cc32)cc1 [Example 62, 4-((3-(2,6-difluoro-3,5-dimethoxyphenyl)-7-(1,3-dimethyl-1H-pyrazol-4-yl)-2-oxo-3,4-dihydropyrido[4,3-d]pyrimidin-1(2H)-yl)methyl)-N-methylbenzamide] | 30 to 200 | >10 | >5 | < 10 |  | 10 to 30 |  |  |  |  | 30 to 200 |  | 
5 | COc1cc(OC)c(F)c(N2Cc3cnc(-c4cn(C)nc4C)cc3N(c3ccc4ccncc4c3)C2=O)c1F [Example 63, 3-(2,6-difluoro-3,5-dimethoxyphenyl)-7-(1,3-dimethyl-1H-pyrazol-4-yl)-1-(isoquinolin-7-yl)-3,4-dihydropyrido[4,3-d]pyrimidin-2(1H)-one] | 30 to 200 | >10 | >5 | < 10 |  | 10 to 30 |  |  |  |  | 30 to 200 |  | 
6 | COc1cc(OC)c(F)c(N2Cc3cnc(-c4cn(C)nc4C)cc3N(Cc3ccncn3)C2=O)c1F [Example 65, 3-(2,6-difluoro-3,5-dimethoxyphenyl)-7-(1,3-dimethyl-1H-pyrazol-4-yl)-1-(pyrimidin-4-ylmethyl)-3,4-dihydropyrido[4,3-d]pyrimidin-2(1H)-one] | 30 to 200 | >5 | >10 | < 10 |  | < 10 |  |  |  |  | 30 to 200 |  | 
7 | COc1cc(OC)c(F)c(N2Cc3cnc(-c4cn(C)nc4C)cc3N(c3ccc(F)c(C#N)c3)C2=O)c1F [Example 66, 5-(3-(2,6-difluoro-3,5-dimethoxyphenyl)-7-(1,3-dimethyl-1H-pyrazol-4-yl)-2-oxo-3,4-dihydropyrido[4,3-d]pyrimidin-1(2H)-yl)-2-fluorobenzonitrile] | 30 to 200 | >5 | >5 | 10 to 30 | > 200 | 30 to 200 |  |  |  |  |  |  | 
8 | COc1cc(OC)c(F)c(N2Cc3cnc(-c4cn(C)nc4C)cc3N(c3cnccn3)C2=O)c1F [Example 70, 3-(2,6-difluoro-3,5-dimethoxyphenyl)-7-(1,3-dimethyl-1H-pyrazol-4-yl)-1-(pyrazin-2-yl)-3,4-dihydropyrido[4,3-d]pyrimidin-2(1H)-one] | 30 to 200 | >5 | >5 | 10 to 30 |  | 10 to 30 |  |  |  |  | 30 to 200 |  | 
9 | COc1cc(OC)c(F)c(N2Cc3cnc(-c4cn(C)nc4C)cc3N(C3CCN(S(C)(=O)=O)CC3)C2=O)c1F [Example 71, 3-(2,6-difluoro-3,5-dimethoxyphenyl)-7-(1,3-dimethyl-1H-pyrazol-4-yl)-1-(1-(methylsulfonyl)piperidin-4-yl)-3,4-dihydropyrido[4,3-d]pyrimidin-2(1H)-one] | 30 to 200 | >5 | >3 |  |  | 30 to 200 |  |  |  |  |  | 10 to 30 | 30 to 200
10 | COc1cc(OC)c(F)c(N2Cc3cnc(-c4cn(C)nc4C)cc3N(Cc3cnn(C)c3)C2=O)c1F [Example 72, 3-(2,6-difluoro-3,5-dimethoxyphenyl)-7-(1,3-dimethyl-1H-pyrazol-4-yl)-1-((1-methyl-1H-pyrazol-4-yl)methyl)-3,4-dihydropyrido[4,3-d]pyrimidin-2(1H)-one] | < 10 | >5 | >10 | < 10 | < 10 | < 10 |  |  |  |  |  |  | 
11 | COc1cc(OC)c(F)c(N2Cc3cnc(-c4cn(C)nc4C)cc3N(Cc3ccc(F)c(F)c3)C2=O)c1F [Example 73, 3-(2,6-difluoro-3,5-dimethoxyphenyl)-1-(3,4-difluorobenzyl)-7-(1,3-dimethyl-1H-pyrazol-4-yl)-3,4-dihydropyrido[4,3-d]pyrimidin-2(1H)-one] | 30 to 200 | >5 | >10 | 10 to 30 |  | 10 to 30 |  |  |  |  | 30 to 200 |  | 
12 | COc1cc(OC)c(F)c(N2Cc3cnc(-c4cn(C)nc4C)cc3N(c3ccc4nc(C)oc4c3)C2=O)c1F [Example 75, 3-(2,6-difluoro-3,5-dimethoxyphenyl)-7-(1,3-dimethyl-1H-pyrazol-4-yl)-1-(2-methylbenzo[d]oxazol-6-yl)-3,4-dihydropyrido[4,3-d]pyrimidin-2(1H)-one] | 30 to 200 | >5 | >3 | 10 to 30 |  | 30 to 200 |  |  |  |  | 30 to 200 |  | 
13 | COc1cc(OC)c(F)c(N2Cc3cnc(-c4cn(C)nc4C)cc3N(c3ccc(-n4cccn4)cc3)C2=O)c1F [Example 77, 1-(4-(1H-pyrazol-1-yl)phenyl)-3-(2,6-difluoro-3,5-dimethoxyphenyl)-7-(1,3-dimethyl-1H-pyrazol-4-yl)-3,4-dihydropyrido[4,3-d]pyrimidin-2(1H)-one] | 30 to 200 | >5 | >10 | < 10 |  | < 10 |  |  |  |  | 10 to 30 |  | 
14 | COc1cc(OC)c(F)c(N2Cc3cnc(-c4cn(C)nc4C)cc3N(c3cc(F)cc(C#N)c3)C2=O)c1F [Example 78, 3-(3-(2,6-difluoro-3,5-dimethoxyphenyl)-7-(1,3-dimethyl-1H-pyrazol-4-yl)-2-oxo-3,4-dihydropyrido[4,3-d]pyrimidin-1(2H)-yl)-5-fluorobenzonitrile] | 30 to 200 | >5 | >3 | < 10 |  | 10 to 30 |  |  |  |  | 30 to 200 |  | 
15 | COc1cc(OC)c(F)c(N2Cc3cnc(-c4cn(C)nc4C)cc3N(c3ccc(C#N)cn3)C2=O)c1F [Example 79, 6-(3-(2,6-difluoro-3,5-dimethoxyphenyl)-7-(1,3-dimethyl-1H-pyrazol-4-yl)-2-oxo-3,4-dihydropyrido[4,3-d]pyrimidin-1(2H)-yl)nicotinonitrile] | 30 to 200 | >5 | >3 | < 10 |  | < 10 |  |  |  |  | 30 to 200 |  | 
16 | COc1cc(N2C(=O)N(c3c(F)c(OC)cc(OC)c3F)Cc3cnc(-c4cn(C)nc4C)cc32)ccc1C#N [Example 81, 4-(3-(2,6-difluoro-3,5-dimethoxyphenyl)-7-(1,3-dimethyl-1H-pyrazol-4-yl)-2-oxo-3,4-dihydropyrido[4,3-d]pyrimidin-1(2H)-yl)-2-methoxybenzonitrile] | > 200 | >5 | >10 | 10 to 30 |  | 10 to 30 |  |  |  |  | 30 to 200 |  | 
17 | COc1cc(OC)c(F)c(N2Cc3cnc(-c4cn(C)nc4C)cc3N(C3CC3)C2=O)c1F [Example 83, 1-cyclopropyl-3-(2,6-difluoro-3,5-dimethoxyphenyl)-7-(1,3-dimethyl-1H-pyrazol-4-yl)-3,4-dihydropyrido[4,3-d]pyrimidin-2(1H)-one] | > 200 | >5 | >5 | 10 to 30 |  | 30 to 200 |  |  |  |  | 30 to 200 |  | 
18 | COc1cc(OC)c(F)c(N2Cc3cnc(-c4cn(C)nc4C)cc3N(Cc3cncnc3)C2=O)c1F [Example 84, 3-(2,6-difluoro-3,5-dimethoxyphenyl)-7-(1,3-dimethyl-1H-pyrazol-4-yl)-1-(pyrimidin-5-ylmethyl)-3,4-dihydropyrido[4,3-d]pyrimidin-2(1H)-one] | 30 to 200 | >5 | >5 | < 10 |  | < 10 |  |  |  |  | 30 to 200 |  | 
